Our source for the IC50 and Ki values is ChEMBL document CHEMBL1909046, “DrugMatrix in vitro pharmacology data”.

Series [1] can be described thus: DRUGMATRIX: Glutamate, NMDA, Phencyclidine radioligand binding (ligand: [3H] TCP). In kind it is cell membranes, Rattus norvegicus, Wistar, Cerebral cortex, Membrane. As to conditions: Not Active = under 50% inhibition at 10 µM.
The next series has as its target Melanocortin receptor 5 (Homo sapiens, UniProt P33032). In kind it is cell membranes, HEK293, Membrane. Further: in other assays of this panel Not Active means under 50% inhibition at 10 µM.
Series [2] has as its target Delta-type opioid receptor (Homo sapiens, UniProt P41143). In kind it is cell membranes, HEK293, Membrane. Further: in other assays of this panel Not Active means under 50% inhibition at 10 µM.
Series [3] in a line: DRUGMATRIX: Phosphodiesterase PDE4 enzyme inhibition (substrate: [3H]cAMP + cAMP). The note with it: u-937; Not Active = under 50% inhibition at 10 µM.
The target of series [4] is Protein phosphatase 3 catalytic subunit alpha (Homo sapiens, UniProt Q08209). The arrangement: species or system Escherichia coli.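 Further: inhibition of calcineurin (PP2B) enzyme activity, measured with DiFMUP as the substrate; in other assays of this panel Not Active means under 50% inhibition at 10 µM.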
A further series deals with Cytochrome P450 2C19 (Homo sapiens, UniProt P33261). The note with it: bti-tn-5b1-4.
Cytochrome P450 2C19, sequence (P33261 whole entry): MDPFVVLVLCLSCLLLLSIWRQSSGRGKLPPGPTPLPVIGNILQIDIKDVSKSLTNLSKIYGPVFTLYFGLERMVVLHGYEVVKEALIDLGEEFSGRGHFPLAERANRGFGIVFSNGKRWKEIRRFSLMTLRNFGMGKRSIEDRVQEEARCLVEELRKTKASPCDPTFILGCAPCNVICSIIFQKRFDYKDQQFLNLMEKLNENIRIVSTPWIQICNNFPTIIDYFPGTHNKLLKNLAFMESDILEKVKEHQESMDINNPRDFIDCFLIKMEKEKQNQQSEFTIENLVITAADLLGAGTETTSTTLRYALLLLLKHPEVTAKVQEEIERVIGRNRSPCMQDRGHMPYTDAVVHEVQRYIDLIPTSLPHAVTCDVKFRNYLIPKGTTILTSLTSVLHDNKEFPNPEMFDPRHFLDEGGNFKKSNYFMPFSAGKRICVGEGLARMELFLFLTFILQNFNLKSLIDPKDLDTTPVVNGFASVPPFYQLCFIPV
Another series deals with Cytochrome P450 3A4 (Homo sapiens, UniProt P08684). The note with it: bti-tn-5b1-4.
Cytochrome P450 3A4, sequence (P08684 whole entry): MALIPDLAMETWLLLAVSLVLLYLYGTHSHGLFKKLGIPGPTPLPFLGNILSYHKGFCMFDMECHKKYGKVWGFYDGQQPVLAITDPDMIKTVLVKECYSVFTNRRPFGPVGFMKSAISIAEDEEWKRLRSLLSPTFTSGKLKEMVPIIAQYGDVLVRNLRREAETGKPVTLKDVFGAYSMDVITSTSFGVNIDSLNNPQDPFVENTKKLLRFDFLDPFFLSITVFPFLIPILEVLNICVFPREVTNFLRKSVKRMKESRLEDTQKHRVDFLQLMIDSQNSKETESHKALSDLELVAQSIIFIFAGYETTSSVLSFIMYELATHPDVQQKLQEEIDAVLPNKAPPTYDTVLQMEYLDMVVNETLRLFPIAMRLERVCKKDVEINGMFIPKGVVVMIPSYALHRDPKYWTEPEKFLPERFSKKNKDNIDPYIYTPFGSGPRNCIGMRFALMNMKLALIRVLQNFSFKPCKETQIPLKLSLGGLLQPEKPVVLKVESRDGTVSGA

Melanocortin receptor 5, sequence (P33032 whole entry): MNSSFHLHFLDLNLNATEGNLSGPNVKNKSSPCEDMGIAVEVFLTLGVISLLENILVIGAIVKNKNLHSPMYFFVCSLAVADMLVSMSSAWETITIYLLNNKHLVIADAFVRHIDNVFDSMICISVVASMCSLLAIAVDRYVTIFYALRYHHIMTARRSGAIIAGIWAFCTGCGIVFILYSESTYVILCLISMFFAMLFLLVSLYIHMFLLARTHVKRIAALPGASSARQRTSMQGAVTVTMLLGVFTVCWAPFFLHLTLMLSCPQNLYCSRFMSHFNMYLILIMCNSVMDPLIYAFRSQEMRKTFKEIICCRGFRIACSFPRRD
Delta-type opioid receptor, sequence (P41143 whole entry): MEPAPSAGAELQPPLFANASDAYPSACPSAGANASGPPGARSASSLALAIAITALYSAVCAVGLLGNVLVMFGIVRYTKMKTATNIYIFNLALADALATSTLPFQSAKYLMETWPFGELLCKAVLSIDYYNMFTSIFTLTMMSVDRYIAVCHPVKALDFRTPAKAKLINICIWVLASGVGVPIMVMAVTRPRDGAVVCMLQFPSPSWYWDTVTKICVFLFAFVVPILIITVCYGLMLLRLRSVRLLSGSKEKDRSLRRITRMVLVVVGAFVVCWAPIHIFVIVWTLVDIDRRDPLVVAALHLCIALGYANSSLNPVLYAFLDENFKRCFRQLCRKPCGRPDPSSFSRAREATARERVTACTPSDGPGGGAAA

Broadly, the IC50 is the midpoint of a concentration-inhibition curve. As a reminder, the Ki is the equilibrium dissociation constant of an inhibitor or competing ligand from its target. For `COc1cc(/C=C/C(=O)O)ccc1O` [FERULATE], the IC50 result (in series [1]; at Melanocortin receptor 5 (hek293); in series [2] (hek293); in series [3]; in series [4]; on Cytochrome P450 2C19) was “Not Active” each time. In addition, the IC50 entry on Cytochrome P450 3A4 was “Not Active”. Further, the inhibition constant (Ki) entry (in series [1]; in series [3]; at Cytochrome P450 2C19; on Cytochrome P450 3A4) was “Not Active” throughout.

`CC(C)(C#N)c1cc(Cn2cncn2)cc(C(C)(C)C#N)c1` [ANASTROZOLE]: the IC50 result (in series [1]; against Melanocortin receptor 5 (hek293); in series [2] (hek293); in series [3]; in series [4]; on Cytochrome P450 2C19) was “Not Active” in each case. The Ki result (in series [1]; in series [3]; at Cytochrome P450 2C19) was “Not Active” in each case.

On to `COc1ccc(Cl)cc1C(=O)NCCc1ccc(S(=O)(=O)NC(=O)NC2CCCCC2)cc1` [GLYBURIDE], for which the IC50 result (in series [1]; on Melanocortin receptor 5 (hek293); in series [2] (hek293); in series [3]; in series [4]; against Cytochrome P450 2C19) was “Not Active” throughout. Moreover, the inhibitory constant (Ki) result (in series [1]; in series [3]; on Cytochrome P450 2C19) was “Not Active” in each case.

As for `CC(C)NCC(O)COc1ccc(CC(N)=O)cc1` (centres undefined) [ATENOLOL], the half-inhibitory concentration (IC50) entry (in series [1]; at Melanocortin receptor 5 (hek293); in series [2] (hek293); in series [3]; in series [4]) was “Not Active” each time. The Ki entry in series [1] and in series [3] was “Not Active” each time.

For the compound `O=C(O)COC(=O)Cc1ccccc1Nc1c(Cl)cccc1Cl` [ACECLOFENAC], the half-inhibitory concentration (IC50) result (in series [1]; against Melanocortin receptor 5 (hek293); in series [2] (hek293); in series [3]; in series [4]; against Cytochrome P450 2C19) was “Not Active” throughout. Also, the IC50 entry against Cytochrome P450 3A4 is “Not Active”. The Ki result (in series [1]; in series [3]; on Cytochrome P450 2C19; at Cytochrome P450 3A4) was “Not Active” in each case.

Regarding `Cl.NC[C@H]1CC[C@H](C(=O)Oc2ccc(CCC(=O)O)cc2)CC1` [CETRAXATE HYDROCHLORIDE], the half-maximal inhibitory concentration (IC50) result (in series [1]; on Melanocortin receptor 5 (hek293); in series [2] (hek293); in series [3]; in series [4]; on Cytochrome P450 2C19) was “Not Active” throughout. Moreover, at Cytochrome P450 3A4, the 50% inhibitory concentration (IC50) result is “Not Active”. The Ki entry (in series [1]; in series [3]; at Cytochrome P450 2C19; at Cytochrome P450 3A4) was “Not Active” throughout.

With `CC(=O)[C@]1(O)Cc2c(O)c3c(c(O)c2[C@@H](O[C@H]2C[C@H](N)[C@H](O)[C@H](C)O2)C1)C(=O)c1ccccc1C3=O` [IDARUBICIN], the IC50 result (in series [1]; at Melanocortin receptor 5 (hek293); in series [2] (hek293); in series [3]; in series [4]; at Cytochrome P450 2C19) was “Not Active” in each case. Moreover, at Cytochrome P450 3A4, the 50% inhibitory concentration (IC50) entry was “Not Active”. The inhibition constant Ki result (in series [1]; in series [3]; at Cytochrome P450 2C19; on Cytochrome P450 3A4) was “Not Active” in each case.

Turning to `C[C@@H]1[C@H](O)[C@@H](C)/C=C/C=C/C=C/C=C/C=C/C=C/C=C/[C@H](O[C@@H]2O[C@H](C)[C@@H](O)[C@H](N)[C@@H]2O)C[C@@H]2O[C@](O)(C[C@@H](O)C[C@@H](O)[C@H](O)CC[C@@H](O)C[C@@H](O)CC(=O)O[C@H]1C)C[C@H](O)[C@H]2C(=O)O` [AMPHOTERICIN B], the concentration for half-maximal inhibition (IC50) result (in series [1]; against Melanocortin receptor 5 (hek293); in series [2] (hek293); in series [3]; in series [4]; on Cytochrome P450 2C19) was “Not Active” throughout. In addition, the IC50 result on Cytochrome P450 3A4 is on record as “Not Active”. For the same compound, the Ki entry (in series [1]; in series [3]; on Cytochrome P450 2C19; at Cytochrome P450 3A4) was “Not Active” throughout.

As to `O=C(O)c1ccccc1` [BENZOIC ACID], the IC50 entry (in series [1]; at Melanocortin receptor 5 (hek293); in series [2] (hek293); in series [3]; in series [4]; on Cytochrome P450 2C19) was “Not Active” throughout. Also, at Cytochrome P450 3A4, the IC50 result is listed as “Not Active”. The inhibitory constant (Ki) entry (in series [1]; in series [3]; at Cytochrome P450 2C19; on Cytochrome P450 3A4) was “Not Active” in each case.

For `C[C@]12CC[C@@H](O)C[C@@H]1CC[C@@H]1[C@@H]2CC[C@]2(C)C(=O)CC[C@@H]12` [ANDROSTERONE], the IC50 entry (in series [1]; on Melanocortin receptor 5 (hek293); in series [2] (hek293); in series [3]; in series [4]; on Cytochrome P450 2C19) was “Not Active” in each case. Besides, on Cytochrome P450 3A4, the IC50 result is reported as “Not Active”. Further, the inhibition constant (Ki) entry (in series [1]; in series [3]; at Cytochrome P450 2C19; at Cytochrome P450 3A4) was “Not Active” throughout.

Take `NCC(CC(=O)O)c1ccc(Cl)cc1` (centres undefined) [BACLOFEN]: the IC50 result (in series [1]; on Melanocortin receptor 5 (hek293); in series [2] (hek293); in series [3]; in series [4]; against Cytochrome P450 2C19) was “Not Active” each time. Also, the IC50 entry against Cytochrome P450 3A4 is “Not Active”. For the same compound, the Ki result (in series [1]; in series [3]; on Cytochrome P450 2C19; on Cytochrome P450 3A4) was “Not Active” in each case.

For `O=C(O)CO` [GLYCOLIC ACID], the half-inhibitory concentration (IC50) result (in series [1]; at Melanocortin receptor 5 (hek293); in series [2] (hek293); in series [3]; in series [4]; against Cytochrome P450 2C19) was “Not Active” each time. In addition, the half-maximal inhibitory concentration (IC50) result against Cytochrome P450 3A4 is “Not Active”. Moreover, the Ki entry (in series [1]; in series [3]; at Cytochrome P450 2C19; at Cytochrome P450 3A4) was “Not Active” throughout.

Regarding `CC1(COc2ccc(CC3SC(=O)NC3=O)cc2)CCCCC1` (centres undefined) [CIGLITAZONE], the concentration for half-maximal inhibition (IC50) entry in series [1] was “Not Active”; on Melanocortin receptor 5 (read-out: IC50), 28.6 µM; in series [2] (read-out: IC50), 26.9 µM; in series [3], “Not Active”; in series [4], “Not Active”; against Cytochrome P450 3A4, “Not Active”. In addition, the inhibitory constant (Ki) result in series [1] is “Not Active”; at Melanocortin receptor 5 (read-out: Ki), 26.8 µM; in series [2] (read-out: Ki) it was 9.48 µM; in series [3] it was “Not Active”; on Cytochrome P450 3A4 it was “Not Active”.

For the compound `C#C[C@]1(O)CC[C@H]2[C@@H]3CCC4=CC(=O)CC[C@@H]4[C@H]3CC[C@@]21C` [NORETHINDRONE], the IC50 entry (in series [1]; on Melanocortin receptor 5 (hek293); in series [2] (hek293); in series [3]; in series [4]; against Cytochrome P450 2C19) was “Not Active” throughout. Also, the Ki entry (in series [1]; in series [3]; at Cytochrome P450 2C19) was “Not Active” throughout.

Take `C=CCN1CC[C@]23c4c5ccc(O)c4O[C@H]2/C(=N/N=C2\CC[C@@]4(O)[C@H]6Cc7ccc(O)c8c7[C@@]4(CCN6CC=C)[C@H]2O8)CC[C@@]3(O)[C@H]1C5` [NALOXONAZINE]: the IC50 entry (in series [1]; against Melanocortin receptor 5 (hek293); in series [3]; in series [4]; at Cytochrome P450 2C19; at Cytochrome P450 3A4) was “Not Active” each time. Moreover, the Ki result (in series [1]; in series [3]; on Cytochrome P450 2C19; at Cytochrome P450 3A4) was “Not Active” in each case.

Turning to `O=C(O)CNCP(=O)(O)O` [GLYPHOSATE], the IC50 result (in series [1]; against Melanocortin receptor 5 (hek293); in series [2] (hek293); in series [3]; in series [4]) was “Not Active” each time. In addition, the Ki result in series [1] and in series [3] was “Not Active” throughout.

On to `COc1cc([C@@H]2c3cc4c(cc3[C@H](O)[C@H]3COC(=O)[C@H]23)OCO4)cc(OC)c1OC` [PODOFILOX], for which the IC50 entry (in series [1]; against Melanocortin receptor 5 (hek293); in series [2] (hek293); in series [3]; in series [4]) was “Not Active” in each case. Also, the Ki result in series [1] and in series [3] was “Not Active” in each case.

Turning to `C[C@H]1C[C@H]2[C@@H]3CCC4=CC(=O)C=C[C@]4(C)[C@@]3(F)[C@@H](O)C[C@]2(C)[C@@]1(O)C(=O)CO` [BETAMETHASONE], the IC50 result (in series [1]; against Melanocortin receptor 5 (hek293); in series [2] (hek293); in series [3]; in series [4]) was “Not Active” in each case. The Ki result in series [1] and in series [3] was “Not Active” in each case.

Turning to `CCN(CCO)CCCC(C)Nc1ccnc2cc(Cl)ccc12` (centres undefined) [HYDROXYCHLOROQUINE], the IC50 result (in series [1]; against Melanocortin receptor 5 (hek293); in series [2] (hek293); in series [3]; in series [4]) was “Not Active” throughout. Also, the inhibition constant (Ki) result in series [1] and in series [3] was “Not Active” in each case.

Turning to `NS(=O)(=O)c1cc(C(=O)O)c(NCc2ccco2)cc1Cl` [FUROSEMIDE], the IC50 entry (in series [1]; against Melanocortin receptor 5 (hek293); in series [2] (hek293); in series [3]; in series [4]) was “Not Active” in each case. In addition, the Ki entry in series [1] and in series [3] was “Not Active” in each case.
